Test results from patent US10435400B2, “2,4-disubstituted phenylene-1,5-diamine derivatives and applications thereof, and pharmaceutical compositions and pharmaceutically acceptable compositions prepared therefrom” (SHANGHAI HAIYAN PHARMACEUTICAL TECHNOLOGY CO., LTD., priority 2014, dated 2019).
Like-named read-outs stand apart in the source and are kept apart here.

What was measured:
[1] = In vivo pharmacokinetic test in rats; conditions: male, SD, rat, plasma; for clearance / half-life: IV 1 mg/kg; for clearance: read-out: Clearance CL; for half-life: read-out: Half-life T½ (converted); for bioavailability: oral gavage 20 mg/kg vs IV 1 mg/kg, read-out: Oral relative bioavailability F; for AUC / Cmax: route not given (IV 1 mg/kg, oral gavage 20 mg/kg); for AUC: read-out: Area under the curve AUC; for Cmax: read-out: Maximum plasma concentration Cmax
Source text: (§1) LC/MS/MS method was applied for the determination of the drug concentration in plasma at different times after the example compounds were orally and intravenously administered to rats or mice in order to study the pharmacokinetic behavior of the compounds of the invention in vivo in rats or mice and evaluate their pharmacokinetic characteristics.
(§2) Test Animals: healthy Adult male SD rats (weight 200-300 g, 6, fasted) or male CD1 mice (weight 20-30 g, 18, free access to water and food), provided by SLAC company;
(§3) Administration and Dosage: (1 mg/kg, 5 ml/kg, 5% DMAC (dimethylacetamide), 5% Solutol HS 15 (polyethylene glycol-15 hydroxystearate) and 90% saline was intravenously administered via foot dorsal vein and (20 mg/kg, 10 ml/kg, 0.5% CMC-Na solution) was administered via oral gavage to SD rats; (1 mg/kg, 5 ml/kg, 5% DMAC, 5% Solutol HS 15 and 90% Saline) was administered intravenously via tail vein and (5 mg/kg, 10 mL/kg, 0.5% CMC-Na aqueous solution) was administered via oral gavage to CD1 mice.
(§4) Blood collection: firstly, the animals which were selected to meet the test requirements prior to administration were weighed. The rats or mice were bound before the blood collection, blood from each administered rat was taken at predetermined time points (intravenous administration: blood was collected at 0.083, 0.25, 0.5, 1, 2, 4, 8, 24 h before and after administration respectively, 9 time points in total; gavage: blood was collected at 0.083, 0.25, 0.5, 1, 2, 4, 8, 24 h before and after administration respectively, 9 time points in total), about 150 μl of blood was collected via tail vein or heart (blood terminal). Blood from each administered mouse was taken blood at predetermined time points (tail vein: blood was collected at 0.083, 0.25, 0.5, 1, 2, 4, 8, 24 h, 8 time points in total; gavage: blood was collected at 0.25, 0.5, 1, 2, 4, 8, 24 h, 7 time points in total), about 150 μl of blood was collected via orbital or heart (blood terminal). Blood was transferred to a 1.5 ml tube to which K2EDTA was added previously. The collected blood sample was put on ice, and centrifuged to obtain plasma sample (2000 g, 5 min under 4° C.) within 15 minutes. All the plasma samples were stored at approximately −70° C. until analysis.
(§5) LC/MS/MS method was applied to determine the concentrations of the drug. At the same dose and administration, pharmacokinetic parameters of some example compounds of the invention in rats and mice were shown in Table 9: […]

H1975 cells [2] = assay: Cytostatic activity by MTT method, H1975 cells; format: cell-based; conditions: MTT; for IC50: 72 h, read-out: H1975 cells (IC50/nM); for selective inhibitory activity against the cell growth [IC50 (A431 cells)/IC50 (H1975 cells)]: ratio of IC50 values
H1975 cells [3] = assay: ELISA screening EGFR T790M inhibitor for cell activity, H1975 cells; format: cell-based; conditions: ELISA; for IC50: compound 1 h, read-out: H1975 cells (IC50/nM); for Selective inhibitory activities of target on cellular level [IC50 (A431 cells)/IC50 (H1975 cells)]: ratio of IC50 values
A431 cells [4] = assay: ELISA cell activity, EGF-stimulated A431 cells; format: cell-based; conditions: ELISA, compound 1 h then EGF 45 minutes, read-out: A431 cells (IC50/nM);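 also: Serum-starved A431 cells pretreated with compound for 1 h, then stimulated with EGF for 45 min, lysates read by ELISA (OD450 minus OD570), EGF-only wells as control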
NIH3T3 cells = assay: Cytotoxicity by MTT method, NIH3T3 cells; format: cell-based; conditions: cytotoxicity, MTT, 72 h, read-out: NIH3T3 cells MTT assay (IC50/nM);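 also: cells grown in 96-well plates with compound for 72 h, then given MTT for a further 4 h at 37 °C under 5% CO2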
A431 cells [5] = assay: Cytostatic activity by MTT method, A431 cells; conditions: read-out: A431 cells (IC50/nM);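 also: viability read by MTT reduction after compound exposure, with MTT incubated for a further 4 h at 37 °C under 5% CO2 in 96-well plates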
[6] = In vivo pharmacokinetic test in mice; conditions: male, CD1, mouse, plasma; for clearance / half-life: IV 1 mg/kg; for clearance: read-out: Clearance CL; for half-life: read-out: Half-life T½ (converted); for bioavailability: oral gavage 5 mg/kg vs IV 1 mg/kg, read-out: Oral relative bioavailability F; for AUC / Cmax: route not given (IV 1 mg/kg, oral gavage 5 mg/kg); for AUC: read-out: Area under the curve AUC; for Cmax: read-out: Maximum plasma concentration Cmax
Source text: as §1, §2, §3, §4, §5

EGFR WT kinase = EGFR WT kinase (Homo sapiens (Human), UniProt P00533); assay: Wild type EGFR kinase inhibition test (z-lyte); format: biochemical; conditions: 10 μM ATP
Chain of EGFR WT kinase (P00533 25-1210): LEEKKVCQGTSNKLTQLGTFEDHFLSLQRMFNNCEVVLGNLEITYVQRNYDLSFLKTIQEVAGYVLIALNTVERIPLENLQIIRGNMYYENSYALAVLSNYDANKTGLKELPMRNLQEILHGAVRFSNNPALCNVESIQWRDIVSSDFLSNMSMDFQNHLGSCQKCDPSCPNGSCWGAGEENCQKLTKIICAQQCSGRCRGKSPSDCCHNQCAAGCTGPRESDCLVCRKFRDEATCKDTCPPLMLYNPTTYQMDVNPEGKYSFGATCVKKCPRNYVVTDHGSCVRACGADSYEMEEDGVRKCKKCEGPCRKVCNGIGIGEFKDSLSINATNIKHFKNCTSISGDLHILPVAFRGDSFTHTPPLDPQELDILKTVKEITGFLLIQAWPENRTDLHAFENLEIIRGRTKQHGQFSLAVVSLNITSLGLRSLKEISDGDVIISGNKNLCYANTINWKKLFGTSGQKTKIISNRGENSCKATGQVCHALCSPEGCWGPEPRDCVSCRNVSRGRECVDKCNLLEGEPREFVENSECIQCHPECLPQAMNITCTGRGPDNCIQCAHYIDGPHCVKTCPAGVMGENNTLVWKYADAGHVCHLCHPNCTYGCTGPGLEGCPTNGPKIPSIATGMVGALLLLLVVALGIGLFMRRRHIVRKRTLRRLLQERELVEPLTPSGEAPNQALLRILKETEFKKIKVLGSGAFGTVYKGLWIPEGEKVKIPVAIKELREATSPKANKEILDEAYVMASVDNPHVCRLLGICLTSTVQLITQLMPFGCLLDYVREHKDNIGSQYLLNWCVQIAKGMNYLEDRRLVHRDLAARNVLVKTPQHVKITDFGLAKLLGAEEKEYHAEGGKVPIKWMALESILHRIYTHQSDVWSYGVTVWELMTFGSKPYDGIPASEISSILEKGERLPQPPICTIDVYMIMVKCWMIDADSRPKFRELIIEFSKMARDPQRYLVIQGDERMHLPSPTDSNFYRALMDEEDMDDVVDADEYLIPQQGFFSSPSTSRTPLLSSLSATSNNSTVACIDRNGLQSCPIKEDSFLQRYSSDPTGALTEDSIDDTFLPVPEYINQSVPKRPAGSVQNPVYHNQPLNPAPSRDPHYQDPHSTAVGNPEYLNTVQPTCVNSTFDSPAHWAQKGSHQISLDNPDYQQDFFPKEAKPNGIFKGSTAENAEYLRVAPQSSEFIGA

SMILES	clearance [1] [mL/min/kg]	half-life [1] [min]	bioavailability [1] [%]	AUC [1] [ng·h/mL]	Cmax [1] [ng/mL]	IC50 (H1975 cells [2]; Homo sapiens, NCI-H1975) [nM]	IC50 (H1975 cells [3]; Homo sapiens, NCI-H1975) [nM]	IC50 (A431 cells [4]; Homo sapiens, A-431) [nM]	IC50 (A431 cells [5]; Homo sapiens, A-431, 72 h) [nM]	clearance [6] [mL/min/kg]	half-life [6] [min]	bioavailability [6] [%]	AUC [6] [ng·h/mL]	Cmax [6] [ng/mL]	selective inhibitory activity against the cell growth [IC50 (A431 cells)/IC50 (H1975 cells)] (H1975 cells [2])	Selective inhibitory activities of target on cellular level [IC50 (A431 cells)/IC50 (H1975 cells)] (H1975 cells [3])	IC50 (EGFR WT kinase) [nM]	IC50 (NIH3T3 cells; Mus musculus, NIH3T3) [nM]	further results
C=CC(=O)Nc1cc(Nc2ncc(Cl)c(-c3cnn(C)c3)n2)c(OC)cc1N1CCC(N(C)C)CC1 [Compound Z-89, N-(5-(5-chloro-4-(1-methyl-1H-pyrazol-4-yl)pyrimidin-2-ylamino)-2-(4-(dimethylamino)piperidin-1-yl)-4-methoxyphenyl)acrylamide]	43.5	423	102	7190	437	19	15	4790	1730	47.7	266	59.7	1040	85.3	–	–	–	4040	–
C=CC(=O)Nc1cc(Nc2ncc(Cl)c(-c3cn(C)nc3C)n2)c(OC)cc1N1CCC(N(C)C)CC1 [Compound Z-95, N-(5-(5-chloro-4-(1,3-dimethyl-1H-pyrazol-4-yl)pyrimidin-2-ylamino)-2-(4-(dimethylamino)piperidin-1-yl)-4-methoxyphenyl)acrylamide]	–	–	–	–	–	45	41	4960	5450	–	–	–	–	–	121.1	121	328	> 10000	–
C=CC(=O)Nc1cc(Nc2ncc(Cl)c(-c3ccn(C)c3)n2)c(OC)cc1N(C)CCN(C)C [Compound Z-99, N-(5-(5-chloro-4-(1-methyl-1H-pyrrol-3-yl)pyrimidin-2-ylamino)-2-((2-(dimethylamino)ethyl)(methyl)amino)-4-methoxyphenyl)acrylamide]	–	–	–	–	–	40	57	663	1040	–	–	–	–	–	26	11.6	38	5990	–

Now from value to compound, other results behind:

clearance [1] [mL/min/kg]	half-life [1] [min]	bioavailability [1] [%]	AUC [1] [ng·h/mL]	Cmax [1] [ng/mL]	IC50 (H1975 cells [2]; Homo sapiens, NCI-H1975) [nM]	IC50 (H1975 cells [3]; Homo sapiens, NCI-H1975) [nM]	IC50 (A431 cells [4]; Homo sapiens, A-431) [nM]	IC50 (A431 cells [5]; Homo sapiens, A-431, 72 h) [nM]	clearance [6] [mL/min/kg]	half-life [6] [min]	bioavailability [6] [%]	AUC [6] [ng·h/mL]	Cmax [6] [ng/mL]	selective inhibitory activity against the cell growth [IC50 (A431 cells)/IC50 (H1975 cells)] (H1975 cells [2])	Selective inhibitory activities of target on cellular level [IC50 (A431 cells)/IC50 (H1975 cells)] (H1975 cells [3])	IC50 (EGFR WT kinase) [nM]	SMILES	IC50 (NIH3T3 cells; Mus musculus, NIH3T3) [nM]	further results
43.9	421	92.6	6480	408	17	34	1690	2390	65.5	279	66.4	657	90.6	140.6	50	102	C=CC(=O)Nc1cc(Nc2ncc(F)c(-c3cnn(C)c3)n2)c(OC)cc1N1CCC(N(C)C)CC1 [Compound Z-90, N-(2-(4-(dimethylamino)piperidin-1-yl)-5-(5-fluoro-4-(1-methyl-1H-pyrazol-4-yl)pyrimidin-2-ylamino)-4-methoxyphenyl)acrylamide]	> 10000	–
–	–	–	–	–	24	24	8430	1230	–	–	–	–	–	51.1	351.2	297	C=CC(=O)Nc1cc(Nc2ncc(Cl)c(-c3cnn(C)c3)n2)c(OC)cc1N1CCN(C)CC1 [Compound Z-100, N-(5-(5-chloro-4-(1-methyl-1H-pyrazol-4-yl)pyrimidin-2-ylamino)-4-methoxy-2-(4-methylpiperazin-1-yl)phenyl)acrylamide]	3880	–
–	–	–	–	–	–	–	–	–	–	–	–	–	–	66	5.2	22	C=CC(=O)Nc1cc(Nc2nccc(-c3cnc4c(ccn4C)c3)n2)c(OC)cc1N(C)CCN(C)C(C)C [Compound Z-115]	–	IC50 (H1975 cells [2]): 38 nM; IC50 (H1975 cells [3]): 90 nM; IC50 (A431 cells [4]): 469 nM; IC50 (NIH3T3 cells): > 10000 nM; IC50 (A431 cells [5]; MTT, 72 h): 2500 nM
